What was measured:
[1] = system: IMR-90 fibroblasts; assay: Induction of senescence in non-senescent cells by prostaglandins or 5-LOX pathway products (EdU, SA-B-gal, p21, immunoblot); format: cell-based, human; conditions: 10 μM, 10 days
Experimental: RNA was extracted from cells or tissues using commercially available kits (Isolate II—Bioline for cells; Direct-zol—Zymo for tissues) according to the manufacturer's instructions. cDNA synthesis was performed using a High Capacity cDNA Reverse Transcription Kit (Thermo Fisher) according to the manufacturer's instructions. Quantitative PCR was performed on a LightCycler 480 II (Roche) using primers and probes designed for the Universal Probe Library. Primers and probes used for human transcripts were ACTB: 5′-CCAACCGCGAGAAGATGA (SEQ ID NO:1), 5′-TCCATCACGATGCCAGTG (SEQ ID NO:2), Probe #64; TUBA: 5′-cttcgtctccgccatcag (SEQ ID NO:3), 5′-ttgccaatctggacacca (SEQ ID NO:4), Probe #58; ALOX5: 5′-[…] (SEQ ID NO:5), 5′-[…] (SEQ ID NO:6), Probe #64; ALOX5AP: 5′-ggtctgcggggctacttt (SEQ ID NO:7), 5′-[…] (SEQ ID NO:8), Probe #18; ALOX12: 5′-[…] (SEQ ID NO:9), 5′-agccaggtcgtcaggag (SEQ ID NO:10), Probe #32; ALOX15: 5′-[…] (SEQ ID NO:11), 5′-[…] (SEQ ID NO:12), Probe #76; ALOX15B: 5′-[…] (SEQ ID NO:13), 5′-actgggaggcgaagaagg (SEQ ID NO:14), Probe #51; AKR1C1: 5′-catgcctgtcctgggattt (SEQ ID NO:15), 5′-[…] (SEQ ID NO:16), Probe #49; AKR1C2: 5′-ctatgcgcctgcagaggt (SEQ ID NO:17), 5′-[…] (SEQ ID NO:18), Probe #31; AKR1C3: 5′-[…] (SEQ ID NO:19), 5′-[…] (SEQ ID NO:20), Probe #78; CYSLTR2: 5′-[…] (SEQ ID NO:21), 5′-[…] (SEQ ID NO:22), Probe #18; DPEP1: 5′-gacgtcctgaggctggtg (SEQ ID NO:23), 5′-[…] (SEQ ID NO:24), Probe #9 (SEQ ID NO:25), ELOVL2: 5′-[…] (SEQ ID NO:26), 5′-[…] (SEQ ID NO:27), Probe #53; ELOVL4: 5′-catttggcccatggattc (SEQ ID NO:28), 5′-[…] (SEQ ID NO:29), Probe #31; ELOVL5: 5′-cccttccatgcgtccata (SEQ ID NO:30), 5′-[…] (SEQ ID NO:31), Probe #31; EPHX2: 5′-ttctgctggacaccctgaa (SEQ ID NO:32), 5′-[…] (SEQ ID NO:33), Probe #45; GPX4: 5′-ttcccgtgtaaccagttcg (SEQ ID NO:34), 5′-[…] (SEQ ID NO:35), Probe #36; LTA4H: 5′-ctgctctcacggtccagtc (SEQ ID NO:36), 5′-[…] (SEQ ID NO:37), Probe #64; LTBR2: 5′-[…] (SEQ ID NO:38), 5′-[…] (SEQ ID NO:39), Probe #33; LTC4S: 5′-[…] (SEQ ID NO:40), 5′-[…] (SEQ ID NO:41), Probe #18; PTGDS: 5′-[…] (SEQ ID NO:42), 5′-[…] (SEQ ID NO:43), Probe #36; PTGES: 5′-agagatgcctgcccacag (SEQ ID NO:44), 5′-tggccaccacgtacatctt (SEQ ID NO:45), Probe #4; PTGES2: 5′-[…] (SEQ ID NO:46), 5′-[…] (SEQ ID NO:47), Probe #49; PTGES3 (SEQ ID NO:48), 5′-[…] (SEQ ID NO:49), 5′-[…] (SEQ ID NO:50), Probe #48; PTGIS: 5′-[…] (SEQ ID NO:51), 5′-[…] (SEQ ID NO:52), Probe #45; PTGR1: 5′-atgatggggcagcaagtg (SEQ ID NO:53), 5′-cccatcagaaatggagtgc (SEQ ID NO:54), Probe #64; PTGS1: 5′-[…] (SEQ ID NO:55), 5′-gtggtggtccatgttcctg (SEQ ID NO:56), Probe #81; PTGS2: 5′-gatccccagggctcaaac (SEQ ID NO:57), 5′-[…] (SEQ ID NO:58), Probe #61; TBXAS1: 5′-[…] (SEQ ID NO:59), 5′-tgcctcccgtgtgaatct (SEQ ID NO:60), Probe #73; AREG: 5′-[…] (SEQ ID NO:61), 5′-[…] (SEQ ID NO:62), Probe #73; CCL2: 5′-AGTCTCTGCCGCCCTTCT (SEQ ID NO:63), 5′-GTGACTGGGGCATTGATTG (SEQ ID NO:64), Probe #40; CCL27: 5′-[…] (SEQ ID NO:65), 5′-gctgggtggcagtaggaat (SEQ ID NO:66), Probe #18; CXCL1: 5′-[…] (SEQ ID NO:67), 5′-[…] (SEQ ID NO:68), Probe #52; HGF: 5′-[…] (SEQ ID NO:69), 5′-[…] (SEQ ID NO:70), Probe #49; ILIA: 5′-[…] (SEQ ID NO:71), 5′-[…] (SEQ ID NO:72), Probe #6; IL1B: 5′-[…] (SEQ ID NO:73), 5′-[…] (SEQ ID NO:74), Probe #78; IL6: 5′-[…] (SEQ ID NO:75), 5′-gaaggcagcaggcaacac (SEQ ID NO:76), Probe #45; IL8: 5′-[…] (SEQ ID NO:77), 5′-atggttccttccggtggt (SEQ ID NO:78), Probe #72; IL10: 5′-[…] (SEQ ID NO:79), 5′-[…] (SEQ ID NO:80), Probe #67; MMP3: 5′-[…] (SEQ ID NO:81), 5′-[…] (SEQ ID NO:82), Probe #36; PDGFA: 5′-[…] (SEQ ID NO:83), 5′-[…] (SEQ ID NO:84), Probe #80; VEGF: 5′-[…] (SEQ ID NO:85), 5′-[…] (SEQ ID NO:86), Probe #50; P21WAF1(CDKN1A): 5′-[…]

[2] = system: IMR-90 fibroblasts; assay: Oncogenic ras-induced senescence of IMR-90 fibroblasts; format: cell-based, human; conditions: RasV12 lentivirus, 7 days treatment
Excerpt: Senescence was induced by irradiation with 10 Gy of ionizing radiation. Non-senescent controls (proliferating or quiescent) were placed in the irradiator for an identical period of time without turning on the irradiator. Oncogene-induced senescence was induced via lentiviral overexpression of HRAS^V12, as described previously (Wiley et al. (2016) Cell Metab. 23: 303-314).

SMILES | p21 gene expression [1] | senescence-associated beta-galactosidase [1] | p21 protein accumulation ([1]; immunoblot) | ras-induced senescence (IL-6 secretion, EdU incorporation, colony formation) [2]
CCCCC/C=C/C=C1/C(=O)C=C[C@@H]1C/C=C\CCCC(=O)O [15d-PGJ2] | induced | induced | induced | 
CC(c1cc2ccccc2s1)N(O)C(N)=O (stereo not shown) [zileuton] |  |  |  | blunting

From US20200371122A1, “BIOMARKER FOR SENESCENT CELLS” (Buck Institute for Research on Aging, priority 2017, published 2020)
